# Columns and labels:
# [1] = system: human mesothelial cells or human fibroblasts; test: cell cultures under hypoxic conditions, production of inflammatory cytokines and growth factors; format: cell-based; details: human mesothelial cells or human fibroblasts cultured under hypoxic conditions, presence vs absence of dichloroacetic acid
# Protocol: Similarly, cell cultures using human mesothelial cells or human fibroblasts are cultured under hypoxic conditions in the presence and absence of dichloroacetic acid. The production of inflammatory cytokines and growth factors is measured, and found to be reduced in the presence of dichloroacetic acid. These growth factors, such as IL-1 and TGF-β, are believed to be associated with adhesion development.
# [2] = animal adhesion study, monitoring of serum alanine and lactate; format: in vivo, rat or rabbit; details: in the presence of dichloroacetic acid, intravenous injection or slow release
# Protocol: An animal adhesion study to evaluate the effectiveness of the pharmaceutical compositions described previously is conducted using a standardized animal model, such as a model of cecal abrasion in the rat or an oravian bisection in the rabbit.
# The animals undergo lesioning by a surgeon unaware of group assignment, with necropsy performed one to two weeks later as is standard for that particular animal model.
# The animals are randomized in a placebo control group and a group using dichloroacetic acid. The treatment begins preoperatively, and continues for five days after surgery. Dichloroacetic acid is administered by intravenous injection, or by slow release from a delivery agent, and is left in the peritoneal cavity following surgery. The maintenance of adequate amounts of dichloroacetic acid can be monitored by the measurement of serum alanine and lactate, which is reduced in the presence of dichloroacetic acid. Necropsy is performed on the animals, and adhesions are scored. Studies are completed on a total of 30 animals in each group in at least three settings.
smiles,measurement,setting,value
O=C(O)C(Cl)Cl [dichloroacetic acid],production of inflammatory cytokines and growth factors (such as IL-1 and TGF-β),[1],reduced
same,serum alanine and lactate,[2],reduced

# — patent US6518308B2, “Compositions for adhesion prevention” (priority 2000, dated 2003)
